From patent US20100197628A1, “METHODS OF TREATING PSYCHIATRIC, SUBSTANCE ABUSE, AND OTHER DISORDERS USING COMBINATIONS CONTAINING OMEGA-3 FATTY ACIDS” (priority 2003, published 2010)
“Also recorded” adds a separate entry of the source.

How the values were obtained:
[1] = Weights of the rats at the time of the re-test; assay type: in vivo, rat; settings: FST studies
Experimental: Rats: A total of 197 male Sprague-Dawley rats (Charles River Laboratories, Boston Mass.) were used in these studies. The rats were housed in groups of four and weighed 325-375 gm at the time of behavioral testing. Rats were maintained on a 12 h light (0700-1900 h)-12 h dark cycle with free access to food and water except during testing. Experiments were conducted in accordance with the 1996 Guide for the Care and Use of Laboratory Animals (NIH) and McLean Hospital policies.

male Sprague-Dawley rats = assay: Forced swim test (FST): latency to become immobile and behavioral sampling; assay type: in vivo, rat; settings: re-test
Experimental: The behavioral effects of the combination of uridine and omega-3 fatty acids were also evaluated in rats using the forced swim test (FST). This assay identifies in rodents treatments that have antidepressant effects in humans (Porsolt et al. Nature 266:730-732 1977; Carlezon et al. Biol. Psychiatry 51:882-889, 2002). Uridine was administered using systemic injection while omega-3 fatty acids were administered by supplementation within the diet for various periods of time (3, 10, or 30 days). The effects of uridine in rats maintained on the omega-3 fatty acid-enriched diet were also evaluated to determine if these effects were additive. […] The efficacy of each treatment in the FST was evaluated using two separate scoring methods: latency to become immobile, a simple and rapid method that identifies agents with antidepressant effects ([…] et al. J Neurosci 21:7397-7403 2001), and behavioral sampling, a more complex method that differentiates antidepressant drugs according to their pharmacological mechanisms (Detke et al. Psychopharmacology 121:66-72 1995). Finally, treatments with antidepressant-like effects in the FST were evaluated for non-specific effects on activity in an open field, which might complicate interpretation of the data from the swimming studies. Rats: A total of 197 male Sprague-Dawley rats (Charles River Laboratories, Boston Mass.) were used in these studies. The rats were housed in groups of four and weighed 325-375 gm at the time of behavioral testing. Rats were maintained on a 12 h light (0700-1900 h)-12 h dark cycle with free access to food and water except during testing. Experiments were conducted in accordance with the 1996 Guide for the Care and Use of Laboratory Animals (NIH) and McLean Hospital policies. Drugs: Dosages of desipramine HCl (DMI), fluoxetine HCl (FLX), citalopram HBr (CIT), and uridine (URI) were administered in a distilled water vehicle (VEH) at a volume of 1 cc/kg. All drugs were purchased from RBI-Sigma (St. Louis, Mo.) except CIT, which was a gift of Forest Laboratories (New York, N.Y.). […] The diets were equivalent in overall fat, protein, carbohydrate, and caloric content. Forced Swim Test (FST): One hundred-sixty seven rats were used in the FST studies, which were conducted as described previously (Carlezon et al. Biol. Psychiatry 51:882-889, 2002) with minor modifications. The FST is a two-day procedure in which rats swim under conditions in which escape is not possible. On the first day, rats are placed in clear, 65 cm tall-25 cm diameter cylinders filled to 48 cm with 25° C. water. The rats initially struggle to escape from the water, but eventually they adopt a posture of immobility in which they make only the movements necessary to keep their heads above water. After 15 min of forced swimming, the rats are removed from the water, dried with towels, and placed in a warmed enclosure for 30 min. The cylinders are emptied and cleaned between rats. When the rats are re-tested 24 hours later under identical conditions in 5 min sessions, immobility is increased. Treatment with standard antidepressant drugs within the 24 hr period between the first exposure to forced swimming and re-testing can attenuate facilitated immobility, an effect correlated with antidepressant efficacy in humans (Porsolt et al. Nature 266:730-732 1977; Detke et al. Psychopharmacology 121:66-72 1995, Carlezon et al. Biol. Psychiatry 51:882-889, 2002). Rats tested with DMI, FLX, CIT, or URI received 3 separate intraperitoneal (IP) injections of drug (or VEH), at 1 hr, 19 hr, and 23 hr after the first exposure to forced swimming. This commonly used regimen is sensitive to the antidepressant-like effects of many standard agents (Porsolt et al. Nature 266:730-732 1977; Detke et al. Psychopharmacology 121:66-72 1995; Carlezon et al. Biol. Psychiatry 51:882-889, 2002). […] There were 7-12 rats per treatment condition, and separate rats were used for each treatment regimen. […]

In the case of `O=c1ccn([C@@H]2O[C@H](CO)[C@@H](O)[C@H]2O)c(=O)[nH]1` [URI, uridine], the “weights of the rats” value [1] is reported as “did not affect”, the “latency to become immobile” value (male Sprague-Dawley rats; URI 71.7 mg/kg IP) is reported as “not” and the “latency to become immobile” value (male Sprague-Dawley rats; URI 130 mg/kg IP) is reported as “not”. For the same molecule, the immobility (male Sprague-Dawley rats; URI 239 mg/kg IP) was “reduced immobility”, the “latency to become immobile” value (male Sprague-Dawley rats; URI 239 mg/kg IP) was “increased latencies” and the swimming behaviors (male Sprague-Dawley rats; URI 239 mg/kg IP) was “increased swimming behaviors”. The “latency to become immobile, effect over doses” value (male Sprague-Dawley rats; URI alone 71.7, 130, 239 mg/kg IP) was “dose-dependent effects; also recorded: dose-dependently increased latencies to become immobile”, the occurrences of climbing (male Sprague-Dawley rats; URI alone 71.7-239 mg/kg IP) was “without affecting climbing” and the “occurrences of immobility, effect over doses” value (male Sprague-Dawley rats; URI alone 71.7-239 mg/kg IP) was “significantly affected; also recorded: dose-dependently decreased immobility”. The “occurrences of swimming, effect over doses” value (male Sprague-Dawley rats; URI alone 71.7-239 mg/kg IP) was “significantly affected; also recorded: increased swimming”.
